# Source: US9879015B2, “Pyrazino[1,2-a]indole compounds, their preparation and use in medicaments” (LABORATORIOS DEL DR. ESTEVE S.A., priority 2013, dated 2018)
# Where a name gives a salt, the structure may show the parent alone.
# Target: T1, human sigma 1 receptor (Homo sapiens, UniProt Q99720)
# T1 construct: expressed in transfected cells; host or cells: HEK-293
# Assay: Human sigma 1 receptor radioligand assay ([3H](+)-pentazocine, transfected HEK-293 membranes)
# Format: binding
# Settings: 5 nM [3H](+)-pentazocine, 37° C., 120 minutes
# Method: Biological Activity Pharmacological Study Human Sigma 1 Receptor Radioligand Assay
# To investigate binding properties of sigma 1 receptor ligands to human sigma 1 receptor, transfected HEK-293 membranes and [^3H](+)-pentazocine (Perkin Elmer, NET-1056), as the radioligand, were used. The assay was carried out with 7 μg of membrane suspension, 5 nM of [^3H](+)-pentazocine in either absence or presence of either buffer or 10 μM Haloperidol for total and non-specific binding, respectively. Binding buffer contained Tris-HCl 50 mM at pH 8. Plates were incubated at 37° C. for 120 minutes. After the incubation period, the reaction mix was then transferred to MultiScreen HTS, FC plates (Millipore), filtered and plates were washed 3 times with ice-cold 10 mM TrisHCL (pH7.4). Filters were dried and counted at approximately 40% efficiency in a MicroBeta scintillation counter (Perkin-Elmer) using EcoScint liquid scintillation cocktail.
# T1 sequence (Q99720 whole entry): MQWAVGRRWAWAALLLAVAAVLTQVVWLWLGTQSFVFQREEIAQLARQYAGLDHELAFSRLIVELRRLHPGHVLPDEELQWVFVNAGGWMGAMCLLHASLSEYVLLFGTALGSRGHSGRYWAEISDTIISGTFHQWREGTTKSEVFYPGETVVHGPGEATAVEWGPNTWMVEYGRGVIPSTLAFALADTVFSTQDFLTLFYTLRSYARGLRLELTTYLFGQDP
row,Compound,Ki [nM]
1,"Cc1c2n(c3ccccc13)CCN(CCN1CCCCCC1)C2 [Example 8, 2-(2-(azepan-1-yl)ethyl)-10-methyl-1,2,3,4-tetrahydropyrazino[1,2-a]indole]",12.5
2,"CN(C)CCCCN1CCN2c3ccccc3CC2C1 (stereo not shown) [Example 19, N,N-dimethyl-4-(3,4,10,10a-tetrahydropyrazino[1,2-a]indol-2(1H)-yl)butan-1-amine]",153
3,"c1ccc2c(c1)cc1n2CCN(CCN2CCCCCC2)C1 [Example 3, 2-(2-(azepan-1-yl)ethyl)-1,2,3,4-tetrahydropyrazino[1,2-a]indole hydrochloride]",3.9
4,"c1ccc2c(c1)CC1CN(CCN3CCCCCC3)CCN21 (stereo not shown) [Example 2, 2-(2-(azepan-1-yl)ethyl)-1,2,3,4,10,10a-hexahydropyrazino[1,2-a]indole]",7.3
5,"Cc1c2n(c3ccccc13)CCN(CCN1CCC(Cc3ccccc3)CC1)C2 [Example 11, 2-(2-(4-benzylpiperidin-1-yl)ethyl)-10-methyl-1,2,3,4-tetrahydropyrazino[1,2-a]indole]",21.4
6,"c1ccc2c(c1)cc1n2CCN(CCCCN2CCCCC2)C1 [Example 14, 2-(4-(piperidin-1-yl)butyl)-1,2,3,4-tetrahydropyrazino[1,2-a]indole]",13.5
7,"c1ccc(CC2CCN(CCN3CCn4c(cc5ccccc54)C3)CC2)cc1 [Example 4, 2-(2-(4-benzylpiperidin-1-yl)ethyl)-1,2,3,4-tetrahydropyrazino[1,2-a]indole hydrochloride]",14.6
8,"CN(C)CCCCN1CCn2c(cc3ccccc32)C1 [Example 7, 4-(3,4-dihydropyrazino[1,2-a]indol-2(1H)-yl)-N,N-dimethylbutan-1-amine]",89.1
9,"c1ccc2c(c1)cc1n2CCN(CCCN2CCCCCC2)C1 [Example 13, 2-(3-(azepan-1-yl)propyl)-1,2,3,4-tetrahydropyrazino[1,2-a]indole]",19.9

# More lines, now with the values ahead:
row,Ki [nM],Compound
1,8.6,"Fc1ccc2c(c1)cc1n2CCN(CCCCN2CCCCCC2)C1 [Example 15, 2-(4-(azepan-1-yl)butyl)-8-fluoro-1,2,3,4-tetrahydropyrazino[1,2-a]indole]"
2,7.4,"Cc1ccc2c(c1)cc1n2CCN(CC(C)N2CCCCCC2)C1 (stereo not shown) [Example 10, 2-(2-(azepan-1-yl)propyl)-8-methyl-1,2,3,4-tetrahydropyrazino[1,2-a]indole]"
3,1.9,"Fc1ccc2c(c1)cc1n2CCN(CCN2CCCCCC2)C1 [Example 9, 2-(2-(azepan-1-yl)ethyl)-8-fluoro-1,2,3,4-tetrahydropyrazino[1,2-a]indole]"
4,9.2,"CC(CN1CCn2c(cc3ccccc32)C1)N1CCN(C2CCCCC2)CC1 (stereo not shown) [Example 17, 2-(2-(4-cyclohexylpiperazin-1-yl)propyl)-1,2,3,4-tetrahydropyrazino[1,2-a]indole]"
5,153,"CN1CCN(CCN2CCn3c(cc4ccccc43)C2)CC1 [Example 5, 2-(2-(4-methylpiperazin-1-yl)ethyl)-1,2,3,4-tetrahydropyrazino[1,2-a]indole hydrochloride]"
6,7.6,"Fc1ccc2c(c1)cc1n2CCN(CCCCN2CCCCC2)C1 [Example 12, 8-fluoro-2-(4-(piperidin-1-yl)butyl)-1,2,3,4-tetrahydropyrazino[1,2-a]indole]"
7,14.1,"CC(CN1CCn2c(cc3cc(F)ccc32)C1)N1CCN(C)CC1 (stereo not shown) [Example 18, 8-fluoro-2-(2-(4-methylpiperazin-1-yl)propyl)-1,2,3,4-tetrahydropyrazino[1,2-a]indole]"
8,175,"CC(CN1CCn2c(cc3ccccc32)C1)N1CCC(Cc2ccccc2)CC1 (stereo not shown) [Example 6, 2-(2-(4-benzylpiperidin-1-yl)propyl)-1,2,3,4-tetrahydropyrazino[1,2-a]indole maleate]"
9,29.8,"CC(CN1CCn2c(cc3ccccc32)C1)N1CCN(C)CC1 (stereo not shown) [Example 1, 2-(2-(4-methylpiperazin-1-yl)propyl)-1,2,3,4-tetrahydropyrazino[1,2-a]indole]"
10,35.8,"CN1CCN(CCCCN2CCn3c(cc4ccccc43)C2)CC1 [Example 16, 2-(4-(4-methylpiperazin-1-yl)butyl)-1,2,3,4-tetrahydropyrazino[1,2-a]indole]"
